Test results taken from patent US11919865B2, “Processes for preparing AG-10, its intermediates, and salts thereof” (EIDOS THERAPEUTICS, INC., priority 2017, dated 2024).
Where “and” joins values, the source holds several entries; their conditions need not be identical. Equal values may be shown once. Each block holds one molecule with its values, some of them ahead of it.

Columns and labels:
[1] = Bioavailability of AG-10, mean plasma concentration after intravenous and oral dosing; format: in vivo; details: 1 mg/kg intravenously and 5 mg/kg orally, plasma 0-24 hours
Experimental: The mean plasma concentration of AG-10 was measured from 0-24 hours after dosing with 1 mg/kg of AG-10 intravenously and 5 mg/kg of AG-10 orally. The calculated pharmacokinetic data is shown in FIG. 2B, FIG. 2D, and FIG. 2F.

[2] = Bioavailability of AG-10 in male and female dogs at different oral dosing levels; format: in vivo; details: oral 5 mg/kg or 20 mg/kg, plasma 2-24 hours
Experimental: The mean plasma concentration of AG-10 was measured from 2-24 hours after oral dosing with 5 mg/kg or 20 mg/kg of AG-10. The calculated pharmacokinetic data is shown in FIG. 3B, FIG. 3D and FIG. 3F.

[3] = Oral dosing of AG-10 forms, plasma pharmacokinetics by LC-MS/MS; format: in vivo, Rat
Experimental: (§1) Rats or Dogs were orally dosed with the zwitterion, Na salt, or HCl salt for of AG-10. Plasma samples from each rat/dog, as applicable, were measured between 0 and up to 96 hours after dosing with the specified form of AG-10. After isolation from the animal, each sample (50 μL) was protein precipitated by adding 500 μL 0.1% formamide in acetonitrile to the sample. After addition for the formamide solution, the sample was vortexed and centrifuging at 1400 rpm for 15 min at 4° C. 100 μL of the supernatant was removed and diluted with 100 μL water. 5 μL of the diluted sample was injected for LC-MS/MS analysis.

[4] = as above; format: in vivo, Dog; details: for Exposure (0-24 h) / Cmax: dog
Experimental: as §1

[5] = Intravenous dosing of AG-10 forms, plasma pharmacokinetics by LC-MS/MS; format: in vivo
Experimental: as §1, with “Mice, Rats” for “Rats”, “were intravenously” for “were orally”, “each mouse/rat/dog,” for “each rat/dog,”, “and 24” for “and up to 96”, “diluted samples” for “diluted sample”

[6] = as above; details: in vivo, dog, 1 mg/kg, the Cmax reported is an extrapolated C0
Experimental: as §1, with “Mice, Rats” for “Rats”, “were intravenously” for “were orally”, “each mouse/rat/dog,” for “each rat/dog,”, “and 24” for “and up to 96”, “diluted samples” for “diluted sample”

Bioavailability ([1]; dogs): high bioavailability | Bioavailability ([1]; mice): high bioavailability | Bioavailability ([1]; rats): high bioavailability | Bioavailability [2]: high bioavailability
SMILES: Cc1n[nH]c(C)c1CCCOc1cc(C(=O)O)ccc1F [AG-10, 3-(3-(3,5-dimethyl-1H-pyrazol-4-yl)propoxy)-4-fluorobenzoic acid]

Cmax ([3]; in vivo, rat, 200 mg/kg): 216000 ng/mL and 741 µM | Exposure (0-24 h) ([3]; rat, 200 mg/kg): 395,503 ng · h/mL | Exposure (0-24 h) ([4]; 20 mg/kg): 69,088 ng · h/mL | Exposure (0-24 h) ([4]; 25 mg/kg): 128,374 ng · h/mL | Exposure (0-24 h) ([4]; 60 mg/kg): 155,814 ng · h/mL | Exposure (0-24 h) ([4]; 200 mg/kg): 1,020,640 ng · h/mL | Cmax ([4]; in vivo, 20 mg/kg): 16100 ng/mL and 55.1 µM | Cmax ([4]; in vivo, 25 mg/kg): 25100 ng/mL and 85.8 µM | Cmax ([4]; in vivo, 60 mg/kg): 41800 ng/mL and 143 µM | Cmax ([4]; in vivo, 200 mg/kg): 154000 ng/mL and 528 µM | Cmax ([5]; in vivo, rat, 1 mg/kg, the Cmax reported is an extrapolated C0, read-out: Cmax (extrapolated C0)): 4280 ng/mL and 14.6 µM | Cmax [6]: 5960 ng/mL and 20.4 µM
SMILES: Cc1n[nH]c(C)c1CCCOc1cc(C(=O)O)ccc1F.Cl [HCl salt, 3-[3-(3,5-dimethyl-1H-pyrazol-4-yl)propoxy]-4-fluorobenzoic acid hydrochloride salt]
Cmax values as compared to the zwitterion and the Na salt ([3]; rats, Table 3 row 3 vs row 1): surprising and significant improvement in Cmax values | Cmax values as compared to the zwitterion ([4]; dogs, Table 3 row 6 vs row 4): surprising and significant improvement in Cmax values

Cmax ([3]; plasma, rat, 200 mg/kg): 26400 ng/mL and 90.3 µM | Exposure (0-24 h) ([4]; 25 mg/kg): 89,786 ng · h/mL | Cmax ([4]; plasma, 25 mg/kg): 17500 ng/mL and 60 µM | Cmax ([5]; mouse, 3 mg/kg): 4480 ng/mL and 15.4 µM | Cmax ([5]; plasma, rat, 3.43 mg/kg, read-out: Cmax): 3090 ng/mL and 10.6 µM
SMILES: Cc1n[nH]c(C)c1CCCOc1cc(C(=O)O)ccc1F [Zwitterion, 3-(3-(3,5-dimethyl-1H-pyrazol-4-yl)propoxy)-4-fluorobenzoic acid]
